Target: PIK3CA (human) (UniProt P42336)
Test: Assessment of PIK3CA Kinase Activity

PIK3CA (human), sequence (P42336 whole entry, looked up): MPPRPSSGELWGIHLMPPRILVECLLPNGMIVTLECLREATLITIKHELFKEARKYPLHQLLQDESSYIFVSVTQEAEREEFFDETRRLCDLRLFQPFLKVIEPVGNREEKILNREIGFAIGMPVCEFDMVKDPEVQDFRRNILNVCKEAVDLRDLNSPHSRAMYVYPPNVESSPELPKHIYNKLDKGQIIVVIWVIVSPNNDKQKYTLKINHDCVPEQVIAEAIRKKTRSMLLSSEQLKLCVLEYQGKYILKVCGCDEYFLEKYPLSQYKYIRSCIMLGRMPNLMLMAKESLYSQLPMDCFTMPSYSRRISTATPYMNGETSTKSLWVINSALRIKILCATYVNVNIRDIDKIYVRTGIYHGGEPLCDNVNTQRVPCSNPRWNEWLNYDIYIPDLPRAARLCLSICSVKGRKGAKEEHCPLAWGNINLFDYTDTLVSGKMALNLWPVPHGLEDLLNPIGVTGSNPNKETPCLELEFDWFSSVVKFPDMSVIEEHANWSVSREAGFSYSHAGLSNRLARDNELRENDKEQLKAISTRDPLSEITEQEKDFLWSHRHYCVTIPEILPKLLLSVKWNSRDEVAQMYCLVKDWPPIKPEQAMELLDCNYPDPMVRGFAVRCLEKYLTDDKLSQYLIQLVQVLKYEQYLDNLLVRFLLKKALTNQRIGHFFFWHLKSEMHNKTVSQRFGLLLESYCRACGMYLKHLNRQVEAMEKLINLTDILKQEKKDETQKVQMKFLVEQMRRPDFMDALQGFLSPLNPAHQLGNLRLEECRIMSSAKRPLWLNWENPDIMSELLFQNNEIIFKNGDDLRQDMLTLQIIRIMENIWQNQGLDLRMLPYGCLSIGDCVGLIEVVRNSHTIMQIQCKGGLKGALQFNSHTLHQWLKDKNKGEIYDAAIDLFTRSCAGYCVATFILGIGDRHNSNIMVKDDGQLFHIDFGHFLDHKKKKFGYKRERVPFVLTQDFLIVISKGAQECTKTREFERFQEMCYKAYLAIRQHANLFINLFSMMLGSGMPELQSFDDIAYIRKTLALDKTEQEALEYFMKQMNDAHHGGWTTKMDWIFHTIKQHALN

| SMILES | IC50 |
| --- | --- |
| NCCNc1nn2c(-c3cnc(N)c(C(F)(F)F)c3)cnc2s1 | 50 to 1000 nM |
| C[C@]1(O)CC[C@@H](Nc2nn3c(-c4cnc(N)c(C(F)(F)F)c4)cnc3s2)CC1 | 22 nM |
| CN1CCN(c2ncc(-c3cnc4sc(NC5CCN(S(C)(=O)=O)CC5)nn34)cc2C(F)(F)F)CC1 | 23000 nM |
| Nc1ncc(-c2cnc3sc(N4CCCC5(CCNCC5)C4)nn23)cc1C(F)(F)F | 50 to 1000 nM |
| Nc1ncc(-c2cnc3sc(NC4CCN(S(=O)(=O)C5CNC5)CC4)nn23)cc1C(F)(F)F | 14 nM |
| CCNC(=O)N1CCC(CNc2nn3c(-c4cnc(N)c(C(F)(F)F)c4)cnc3s2)CC1 | 1 to 50 nM |
| Nc1ncc(-c2cnc3sc(N[C@H]4CC[C@@H](N)CC4)nn23)cc1C(F)(F)F | 1 to 50 nM |
| CS(=O)(=O)N1CC2(CCCN(c3nn4c(-c5cnc(N)c(C(F)(F)F)c5)cnc4s3)C2)C1 | 50 to 1000 nM |
| CCNC(=O)N[C@H]1CC[C@H](Nc2nn3c(-c4cnc(N)c(C(F)(F)F)c4)c(Cl)nc3s2)CC1 | 1 to 50 nM |
| CC(=O)N[C@H]1CC[C@H](Nc2nn3c(-c4cnc(N)c(C(F)(F)F)c4)cnc3s2)CC1 | 50 to 1000 nM |
| Nc1ncc(-c2cnc3sc(NC4CCNCC4)nn23)cc1C(F)(F)F | 67 nM |

Now from value to compound:

| IC50 | SMILES |
| --- | --- |
| 50 to 1000 nM | CC(C)(C)OC(=O)N1CCC(Nc2nn3c(-c4cnc(N)c(C(F)(F)F)c4)cnc3s2)CC1 |
| 12 nM | CS(=O)(=O)N1CCC(Nc2nn3c(-c4cnc(N)c(C(F)(F)F)c4)cnc3s2)CC1 |
| 179 nM | Nc1ncc(-c2cnc3sc(N4CCCC(CO)C4)nn23)cc1C(F)(F)F (stereo not drawn) |
| 131 nM | CC(C)(C)OC(=O)N1CC(S(=O)(=O)N2CCC(Nc3nn4c(-c5cnc(N)c(C(F)(F)F)c5)cnc4s3)CC2)C1 |
| 50 to 1000 nM | Nc1ncc(-c2cnc3sc(N4CCCC(N)C4)nn23)cc1C(F)(F)F (stereo not drawn) |
| 177 nM | CC(C)(C)OC(=O)NC1CCN(c2nn3c(-c4cnc(N)c(C(F)(F)F)c4)cnc3s2)C1 (stereo not drawn) |
| 50 to 1000 nM | CC(C)(C)OC(=O)NCCNc1nn2c(-c3cnc(N)c(C(F)(F)F)c3)cnc2s1 |
